Experimental data taken from PubChem BioAssay (NCI).
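Cultured in 96-well plates, cells were exposed to test compound for 48 hours across five concentrations. TGI: total growth inhibition.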

Assays:
Assay in all cases: growth of human tumour cells (NCI), 48 h
HCT-15 colon = test system: HCT-15 colon
M14 melanoma = test system: M14 melanoma
SN12C renal = test system: SN12C renal
HOP-62 NSCLC = test system: HOP-62 NSCLC
NCI-H460 lung = test system: NCI-H460 lung
UACC-257 melanoma = test system: UACC-257 melanoma
ACHN renal = test system: ACHN renal
HL-60(TB) leukemia = test system: HL-60(TB) leukemia
SR leukemia = test system: SR leukemia
BT-549 breast = test system: BT-549 breast
MDA-N = test system: MDA-N
OVCAR-8 ovarian = test system: OVCAR-8 ovarian
MCF7 breast = test system: MCF7 breast
K-562 leukemia = test system: K-562 leukemia
DU-145 prostate = test system: DU-145 prostate
NCI/ADR-RES ovarian = test system: NCI/ADR-RES ovarian
A498 renal = test system: A498 renal
PC-3 prostate = test system: PC-3 prostate
NCI-H23 lung = test system: NCI-H23 lung
HOP-92 NSCLC = test system: HOP-92 NSCLC
EKVX NSCLC = test system: EKVX NSCLC
SW-620 colon = test system: SW-620 colon
A549 NSCLC = test system: A549 NSCLC
COLO 205 colon = test system: COLO 205 colon
KM12 colon = test system: KM12 colon
CCRF-CEM leukemia = test system: CCRF-CEM leukemia
UO-31 renal = test system: UO-31 renal
SF-539 CNS = test system: SF-539 CNS
RPMI-8226 leukemia = test system: RPMI-8226 leukemia
SNB-19 CNS = test system: SNB-19 CNS
OVCAR-5 ovarian = test system: OVCAR-5 ovarian
MDA-MB-435 = test system: MDA-MB-435
HT29 colon = test system: HT29 colon
T-47D breast = test system: T-47D breast
OVCAR-3 ovarian = test system: OVCAR-3 ovarian
MALME-3M melanoma = test system: MALME-3M melanoma
TK-10 renal = test system: TK-10 renal
RXF 393 renal = test system: RXF 393 renal
SF-295 CNS = test system: SF-295 CNS
786-0 renal = test system: 786-0 renal
U251 CNS = test system: U251 CNS
NCI-H226 lung = test system: NCI-H226 lung
MOLT-4 leukemia = test system: MOLT-4 leukemia
SK-MEL-28 melanoma = test system: SK-MEL-28 melanoma
SF-268 CNS = test system: SF-268 CNS
HCT-116 colon = test system: HCT-116 colon
SK-MEL-2 melanoma = test system: SK-MEL-2 melanoma
UACC-62 melanoma = test system: UACC-62 melanoma
HS 578T breast = test system: HS 578T breast
SK-MEL-5 melanoma = test system: SK-MEL-5 melanoma
SNB-75 CNS = test system: SNB-75 CNS
SK-OV-3 ovarian = test system: SK-OV-3 ovarian
LOX IMVI melanoma = test system: LOX IMVI melanoma
IGROV1 ovarian = test system: IGROV1 ovarian
MDA-MB-231 breast = test system: MDA-MB-231 breast
HCC-2998 colon = test system: HCC-2998 colon
OVCAR-4 ovarian = test system: OVCAR-4 ovarian
CAKI-1 renal = test system: CAKI-1 renal
NCI-H522 lung = test system: NCI-H522 lung

## Cc1ccc(S(=O)c2cccs2)cc1 (configuration not stated)
HCT-15 colon
  TGI: > 100 µM
M14 melanoma
  TGI: > 100 µM
SN12C renal
  TGI: > 100 µM
HOP-62 NSCLC
  TGI: > 100 µM
NCI-H460 lung
  TGI: > 100 µM
UACC-257 melanoma
  TGI: > 100 µM
ACHN renal
  TGI: > 100 µM
HL-60(TB) leukemia
  TGI: > 100 µM
SR leukemia
  TGI: > 100 µM
BT-549 breast
  TGI: > 100 µM
MDA-N
  TGI: > 100 µM
OVCAR-8 ovarian
  TGI: > 100 µM
MCF7 breast
  TGI: > 100 µM
K-562 leukemia
  TGI: > 100 µM
DU-145 prostate
  TGI: > 100 µM
NCI/ADR-RES ovarian
  TGI: > 100 µM
A498 renal
  TGI: > 100 µM
PC-3 prostate
  TGI: > 100 µM
NCI-H23 lung
  TGI: > 100 µM
HOP-92 NSCLC
  TGI: > 100 µM
EKVX NSCLC
  TGI: > 100 µM
SW-620 colon
  TGI: > 100 µM
A549 NSCLC
  TGI: > 100 µM
COLO 205 colon
  TGI: > 100 µM
KM12 colon
  TGI: > 100 µM
CCRF-CEM leukemia
  TGI: > 100 µM
UO-31 renal
  TGI: > 100 µM
SF-539 CNS
  TGI: > 100 µM
RPMI-8226 leukemia
  TGI: > 100 µM
SNB-19 CNS
  TGI: > 100 µM
OVCAR-5 ovarian
  TGI: > 100 µM
MDA-MB-435
  TGI: > 100 µM
HT29 colon
  TGI: > 100 µM
T-47D breast
  TGI: > 100 µM
OVCAR-3 ovarian
  TGI: > 100 µM
MALME-3M melanoma
  TGI: > 100 µM
TK-10 renal
  TGI: > 100 µM
RXF 393 renal
  TGI: > 100 µM
SF-295 CNS
  TGI: > 100 µM
786-0 renal
  TGI: > 100 µM
U251 CNS
  TGI: > 100 µM
NCI-H226 lung
  TGI: > 100 µM
MOLT-4 leukemia
  TGI: > 100 µM
SK-MEL-28 melanoma
  TGI: > 100 µM
SF-268 CNS
  TGI: > 100 µM
HCT-116 colon
  TGI: > 100 µM

## COC(=O)C1(NC(=O)C(Cc2ccccc2)N(C(=O)OC(C)(C)C)C(=O)OC(C)(C)C)CCCC1 (configuration not stated)
SK-MEL-2 melanoma
  TGI: > 100 µM
HCT-15 colon
  TGI: > 100 µM
UACC-62 melanoma
  TGI: > 100 µM
M14 melanoma
  TGI: > 100 µM
SN12C renal
  TGI: > 100 µM
HOP-62 NSCLC
  TGI: > 100 µM
NCI-H460 lung
  TGI: > 100 µM
HS 578T breast
  TGI: > 100 µM
ACHN renal
  TGI: > 10 µM
HL-60(TB) leukemia
  TGI: 62.1 µM
SR leukemia
  TGI: > 10 µM
MDA-N
  TGI: > 100 µM
OVCAR-8 ovarian
  TGI: > 100 µM
MCF7 breast
  TGI: 64.6 µM
K-562 leukemia
  TGI: > 100 µM
DU-145 prostate
  TGI: > 100 µM
SK-MEL-5 melanoma
  TGI: > 100 µM
NCI/ADR-RES ovarian
  TGI: > 100 µM
A498 renal
  TGI: > 100 µM
PC-3 prostate
  TGI: > 100 µM
SNB-75 CNS
  TGI: > 100 µM
NCI-H23 lung
  TGI: > 100 µM
HOP-92 NSCLC
  TGI: > 100 µM
EKVX NSCLC
  TGI: > 100 µM
SW-620 colon
  TGI: > 100 µM
A549 NSCLC
  TGI: > 100 µM
COLO 205 colon
  TGI: > 100 µM
SK-OV-3 ovarian
  TGI: > 100 µM
CCRF-CEM leukemia
  TGI: > 100 µM
UO-31 renal
  TGI: > 100 µM
SF-539 CNS
  TGI: > 100 µM
RPMI-8226 leukemia
  TGI: 47.1 µM
SNB-19 CNS
  TGI: > 100 µM
OVCAR-5 ovarian
  TGI: > 100 µM
MDA-MB-435
  TGI: > 100 µM
T-47D breast
  TGI: > 100 µM
LOX IMVI melanoma
  TGI: > 100 µM
IGROV1 ovarian
  TGI: > 100 µM
TK-10 renal
  TGI: > 100 µM
MDA-MB-231 breast
  TGI: > 100 µM
786-0 renal
  TGI: > 10 µM
U251 CNS
  TGI: > 100 µM
HCC-2998 colon
  TGI: > 100 µM
NCI-H226 lung
  TGI: > 100 µM
MOLT-4 leukemia
  TGI: > 100 µM
SK-MEL-28 melanoma
  TGI: > 100 µM
SF-268 CNS
  TGI: > 100 µM
HCT-116 colon
  TGI: > 100 µM

## O=C1CCN2c3ccccc3[C@H]3Cc4cccc(c4[C@@H]2C3)CCO1
SK-MEL-2 melanoma
  TGI: > 100 µM
HCT-15 colon
  TGI: > 100 µM
UACC-62 melanoma
  TGI: > 100 µM
M14 melanoma
  TGI: 49.1 µM
SN12C renal
  TGI: 37.4 µM
HOP-62 NSCLC
  TGI: > 100 µM
NCI-H460 lung
  TGI: > 100 µM
UACC-257 melanoma
  TGI: > 100 µM
ACHN renal
  TGI: > 100 µM
HL-60(TB) leukemia
  TGI: 48.8 µM
SR leukemia
  TGI: 74.6 µM
BT-549 breast
  TGI: > 100 µM
MDA-N
  TGI: 80.3 µM
OVCAR-8 ovarian
  TGI: > 100 µM
MCF7 breast
  TGI: > 100 µM
K-562 leukemia
  TGI: 80.7 µM
OVCAR-4 ovarian
  TGI: > 100 µM
DU-145 prostate
  TGI: > 100 µM
SK-MEL-5 melanoma
  TGI: 54.3 µM
NCI/ADR-RES ovarian
  TGI: > 100 µM
A498 renal
  TGI: > 100 µM
PC-3 prostate
  TGI: > 100 µM
SNB-75 CNS
  TGI: 96.7 µM
NCI-H23 lung
  TGI: > 100 µM
HOP-92 NSCLC
  TGI: > 100 µM
EKVX NSCLC
  TGI: > 100 µM
SW-620 colon
  TGI: > 100 µM
A549 NSCLC
  TGI: > 100 µM
COLO 205 colon
  TGI: > 100 µM
CAKI-1 renal
  TGI: > 100 µM
SK-OV-3 ovarian
  TGI: > 100 µM
KM12 colon
  TGI: > 100 µM
CCRF-CEM leukemia
  TGI: > 100 µM
UO-31 renal
  TGI: 76.4 µM
SF-539 CNS
  TGI: > 100 µM
RPMI-8226 leukemia
  TGI: > 100 µM
SNB-19 CNS
  TGI: > 100 µM
OVCAR-5 ovarian
  TGI: > 100 µM
MDA-MB-435
  TGI: > 100 µM
HT29 colon
  TGI: > 100 µM
T-47D breast
  TGI: > 100 µM
LOX IMVI melanoma
  TGI: > 100 µM
IGROV1 ovarian
  TGI: 84.9 µM
OVCAR-3 ovarian
  TGI: 86 µM
MALME-3M melanoma
  TGI: > 100 µM
TK-10 renal
  TGI: > 100 µM
MDA-MB-231 breast
  TGI: > 100 µM
NCI-H522 lung
  TGI: > 100 µM
RXF 393 renal
  TGI: > 100 µM
SF-295 CNS
  TGI: > 100 µM
786-0 renal
  TGI: > 100 µM
U251 CNS
  TGI: > 100 µM
HCC-2998 colon
  TGI: > 100 µM
NCI-H226 lung
  TGI: > 100 µM
MOLT-4 leukemia
  TGI: 54.5 µM
SK-MEL-28 melanoma
  TGI: > 100 µM
SF-268 CNS
  TGI: > 100 µM
HCT-116 colon
  TGI: > 100 µM

## O=C(CNc1ccccn1)Nn1cnc2ccc(S(=O)(=O)Nc3ccccn3)cc2c1=O
SK-MEL-2 melanoma
  TGI: > 100 µM
HCT-15 colon
  TGI: > 100 µM
UACC-62 melanoma
  TGI: > 100 µM
M14 melanoma
  TGI: > 100 µM
SN12C renal
  TGI: > 100 µM
HOP-62 NSCLC
  TGI: > 100 µM
NCI-H460 lung
  TGI: > 100 µM
HS 578T breast
  TGI: > 100 µM
UACC-257 melanoma
  TGI: > 100 µM
ACHN renal
  TGI: > 100 µM
HL-60(TB) leukemia
  TGI: > 100 µM
SR leukemia
  TGI: > 100 µM
BT-549 breast
  TGI: > 100 µM
MDA-N
  TGI: > 100 µM
OVCAR-8 ovarian
  TGI: > 100 µM
MCF7 breast
  TGI: > 100 µM
K-562 leukemia
  TGI: > 100 µM
OVCAR-4 ovarian
  TGI: > 100 µM
DU-145 prostate
  TGI: > 100 µM
NCI/ADR-RES ovarian
  TGI: > 100 µM
PC-3 prostate
  TGI: > 100 µM
SNB-75 CNS
  TGI: > 100 µM
NCI-H23 lung
  TGI: > 100 µM
HOP-92 NSCLC
  TGI: > 100 µM
EKVX NSCLC
  TGI: > 100 µM
SW-620 colon
  TGI: > 100 µM
A549 NSCLC
  TGI: > 100 µM
COLO 205 colon
  TGI: > 100 µM
CAKI-1 renal
  TGI: > 100 µM
SK-OV-3 ovarian
  TGI: > 100 µM
KM12 colon
  TGI: > 100 µM
CCRF-CEM leukemia
  TGI: > 100 µM
UO-31 renal
  TGI: > 100 µM
SF-539 CNS
  TGI: > 100 µM
RPMI-8226 leukemia
  TGI: > 100 µM
SNB-19 CNS
  TGI: > 100 µM
OVCAR-5 ovarian
  TGI: > 100 µM
MDA-MB-435
  TGI: > 100 µM
HT29 colon
  TGI: > 100 µM
LOX IMVI melanoma
  TGI: > 100 µM
IGROV1 ovarian
  TGI: > 100 µM
OVCAR-3 ovarian
  TGI: > 100 µM
MALME-3M melanoma
  TGI: > 100 µM
TK-10 renal
  TGI: > 100 µM
MDA-MB-231 breast
  TGI: > 100 µM
NCI-H522 lung
  TGI: > 100 µM
SF-295 CNS
  TGI: > 100 µM
786-0 renal
  TGI: > 100 µM
U251 CNS
  TGI: > 100 µM
HCC-2998 colon
  TGI: > 100 µM
NCI-H226 lung
  TGI: > 100 µM
MOLT-4 leukemia
  TGI: > 100 µM
SK-MEL-28 melanoma
  TGI: > 100 µM
SF-268 CNS
  TGI: > 100 µM
HCT-116 colon
  TGI: > 100 µM
